Laboratory results from ChEMBL document CHEMBL4393711, “Discovery and synthesis of novel indole derivatives-containing 3-methylenedihydrofuran-2(3H)-one as irreversible LSD1 inhibitors” (Eur J Med Chem, 2019).

The molecules below were run against T1, Lysine-specific histone demethylase 1A (Homo sapiens, UniProt O60341) (assay: Inhibition of recombinant LSD1 (unknown origin) (catalytic domain 157 to 852 residues) expressed in Escherichia coli BL21 using H3K4me1 as substrate incubated for 1 hr by horse-radish peroxidase/amplex red-based fluorescence method). Details: not given.
`C=C1C(=O)OCC1C(O)c1cn(Cc2ccc(Cl)cc2)c2ccc(Cl)cc12` (stereo unspecified) was tested, and the IC50 was > 10 µM.
`C=C1C(=O)OCC1C(O)c1cn(Cc2c(C)noc2C)c2ccc(Cl)cc12` (stereo unspecified) was tested, and the IC50 was > 10 µM.
In the case of `C=C1C(=O)OCC1C(O)c1cn(Cc2ccc(Cl)s2)c2ccc(Cl)cc12` (stereo unspecified), the IC50 is reported as > 10 µM.
In the case of `C=C1C(=O)OCC1C(O)c1cn(Cc2cncc(C)c2)c2ccc(Cl)cc12` (stereo unspecified), the IC50 is reported as > 10 µM.
For `O=C(/C=C/c1ccco1)c1cn(Cc2ccc(F)cc2)c2ccc(Cl)cc12`, the IC50 was > 10 µM.
With `OC(c1ccccc1)c1cn(Cc2ccc(F)cc2)c2ccc(Cl)cc12` (stereo unspecified) the IC50 was > 10 µM.
With `C=C1C(=O)OCC1C(O)c1cn(Cc2ccc(Cl)cc2)c2cccc(Cl)c12` (stereo unspecified) the IC50 was > 10 µM.
For `C=C1C(=O)OCC1C(O)c1cn(Cc2ncccn2)c2ccc(Cl)cc12` (stereo unspecified), the IC50 was > 10 µM.
`C=C1C(=O)OCC1C(O)c1cn(C(=O)c2ccco2)c2ccc(Cl)cc12` (stereo unspecified) was tested, and the IC50 was > 10 µM.
`O=C(c1cn(Cc2ccc(F)cc2)c2ccc(Cl)cc12)C1CC1` was tested, and the IC50 was > 10 µM.
For `C=C1C(=O)OCC1C(O)c1cn(Cc2ccc(Cl)cc2)c2cccc(OC)c12` (stereo unspecified), the IC50 was > 10 µM.
For `CC1=CCSC1C(=O)c1cn(Cc2ccc(F)cc2)c2ccc(Cl)cc12` (stereo unspecified), the IC50 was > 10 µM.
In the case of `C=C1C(=O)OCC1C(O)c1cn(Cc2ccc(Cl)cc2)c2c(Cl)cccc12` (stereo unspecified), the IC50 is reported as > 10 µM.
`O/N=C(\c1ccccc1)c1cn(Cc2ccc(F)cc2)c2ccc(Cl)cc12` was tested, and the IC50 was > 10 µM.
For `C=C1C(=O)OCC1C(O)c1cn(Cc2ccncc2)c2ccc(Cl)cc12` (stereo unspecified), the IC50 was > 10 µM.
In the case of `C=C1C(=O)OCC1C(O)c1cn(Cc2ccc(Cl)cc2)c2c(OC)cccc12` (stereo unspecified), the IC50 is reported as > 10 µM.
In the case of `C=C1C(=O)OCC1C(O)c1cn(Cc2ccc(Cl)cn2)c2ccc(Cl)cc12` (stereo unspecified), the IC50 is reported as > 10 µM.
In the case of `O=C(c1ccc(F)cc1)c1cn(Cc2ccc(F)cc2)c2ccc(Cl)cc12`, the IC50 is reported as > 10 µM.
In the case of `O=C(c1ccnc(Cl)c1)c1cn(Cc2ccc(F)cc2)c2ccc(Cl)cc12`, the IC50 is reported as > 10 µM.
`Cc1ccc(C(=O)c2cn(Cc3ccc(F)cc3)c3ccc(Cl)cc23)cc1` was tested, and the IC50 was > 10 µM.
For `C=C1C(=O)OCC1C(O)c1cn(Cc2cnc(Cl)s2)c2ccc(Cl)cc12` (stereo unspecified), the IC50 was > 10 µM.
For `C=C1C(=O)OCC1C(O)c1cn(C(=O)c2c(C)noc2C)c2ccc(Cl)cc12` (stereo unspecified), the IC50 was > 10 µM.
`C=C1C(=O)OCC1C(O)c1cn(Cc2nc3ccccc3[nH]2)c2ccc(Cl)cc12` (stereo unspecified) was tested, and the IC50 was > 10 µM.
With `C=C1C(=O)OCC1C(O)c1cn(Cc2ccc(Cl)cc2)c2cc(Cl)ccc12` (stereo unspecified) the IC50 was > 10 µM.
In the case of `CC(=O)c1cn(Cc2ccc(F)cc2)c2ccc(Cl)cc12`, the IC50 is reported as > 10 µM.
`C=C1C(=O)OCC1C(O)c1cn(Cc2nc3ccccc3o2)c2ccc(Cl)cc12` (stereo unspecified) was tested, and the IC50 was > 10 µM.
`C=C1C(=O)OCC1C(O)c1cn(Cc2ccc(Cl)cc2)c2ccc(F)cc12` (stereo unspecified) was tested, and the IC50 was > 10 µM.
In the case of `O=C(c1ccco1)c1cn(Cc2ccc(F)cc2)c2ccc(Cl)cc12`, the IC50 is reported as > 10 µM.
For `C=C1C(=O)OCC1C(O)c1cn(Cc2ccc(Cl)cc2)c2cc(OC)ccc12` (stereo unspecified), the IC50 was > 10 µM.
With `C=C1C(=O)OCC1C(O)c1cn(C(=O)C2CC2)c2ccc(Cl)cc12` (stereo unspecified) the IC50 was > 10 µM.
For `C=C1C(=O)OCC1C(O)c1cn(C(=O)c2cccnc2Cl)c2ccc(Cl)cc12` (stereo unspecified), the IC50 was > 10 µM.
With `C=C1C(=O)OCC1C(O)c1cn(C(=O)/C=C/c2ccccc2)c2ccc(Cl)cc12` (stereo unspecified) the IC50 was > 10 µM.
With `C=C1C(=O)OCC1C(O)c1cn(CC2CC2)c2ccc(Cl)cc12` (stereo unspecified) the IC50 was > 10 µM.
With `O=C(c1ccncc1)c1cn(Cc2ccc(F)cc2)c2ccc(Cl)cc12` the IC50 was > 10 µM.
In the case of `C=C1C(=O)OCC1C(O)c1cn(Cc2csc(N)n2)c2ccc(Cl)cc12` (stereo unspecified), the IC50 is reported as > 10 µM.
In the case of `C=C1C(=O)OCC1C(O)c1cn(Cc2nc(C)c3ccccc3n2)c2ccc(Cl)cc12` (stereo unspecified), the IC50 is reported as > 10 µM.
With `O=C(c1ccccc1)c1cn(Cc2ccc(F)cc2)c2ccc(Cl)cc12` the IC50 was > 10 µM.
For `C=C1C(=O)OCC1C(O)c1cn(C(=O)c2sccc2C)c2ccc(Cl)cc12` (stereo unspecified), the IC50 was > 10 µM.
For `C=C1C(=O)OCC1C(O)c1cn(Cc2nc3ccccc3s2)c2ccc(Cl)cc12` (stereo unspecified), the IC50 was > 10 µM.
In the case of `C=C1C(=O)OCC1C(O)c1cn(Cc2ccc(Cl)cc2)c2ccc(OC)cc12` (stereo unspecified), the IC50 is reported as > 10 µM.
In the case of `O=C(/C=C/c1cccs1)c1cn(Cc2ccc(F)cc2)c2ccc(Cl)cc12`, the IC50 is reported as > 10 µM.

The molecules below were run on THP-1 (assay: Antiproliferative activity against human THP1 cells assessed as reduction in cell viability incubated for 5 days by MTT assay). Details: THP-1, 120 h.
For `C=C1C(=O)OCC1C(O)c1cn(Cc2ccc(F)cc2)c2ccc(Cl)cc12` (stereo unspecified), the IC50 was 1.2 µM.

These molecules were tested on THP-1 (assay: Inhibition of colony formation in human THP1 cells incubated for 2 weeks by microscopic analysis). Details: not given.
Format: functional, cell-based
For `c1ccc([C@@H]2C[C@H]2NC2CCNCC2)cc1`, the inhibition was “Dose-dependent effect”.
For `C=C1C(=O)OCC1C(O)c1cn(Cc2ccc(F)cc2)c2ccc(Cl)cc12` (stereo unspecified), the inhibition was “Dose-dependent effect”.

Each molecule was assayed on THP-1 (assay: Induction of cellular morphology change in human THP1 cells assessed as blurred cell membrane boundaries with chromatin shrinkage incubated for 3 days by hematoxylin and eosin staining based microscopic analysis). Details: not given.
Format: functional
With `c1ccc([C@@H]2C[C@H]2NC2CCNCC2)cc1` the Activity was “Dose-dependent effect”.
`C=C1C(=O)OCC1C(O)c1cn(Cc2ccc(F)cc2)c2ccc(Cl)cc12` (stereo unspecified) was tested, and the Activity was “Dose-dependent effect”.

The molecules below were run against T1, Lysine-specific histone demethylase 1A. Details: not given.
Work on `c1ccc([C@@H]2C[C@H]2NC2CCNCC2)cc1` yielded a Ka of 2.6 ×10³ /M.s.

Target: T1, Lysine-specific histone demethylase 1A
Details: not given
Remark: another data set of the same source
With `c1ccc([C@@H]2C[C@H]2NC2CCNCC2)cc1` the Kdiss was 1.11 ×10⁻¹ /s.

Target: T1, Lysine-specific histone demethylase 1A
Details: not given
Remark: another data set of the same source
`c1ccc([C@@H]2C[C@H]2NC2CCNCC2)cc1` was tested, and the ΔTm was 2.21 °C.

Target: T1, Lysine-specific histone demethylase 1A
Details: not given
Remark: another data set of the same source
`c1ccc([C@@H]2C[C@H]2NC2CCNCC2)cc1` was tested, and the ΔTm was 4.28 °C.

Target: T1, Lysine-specific histone demethylase 1A
Details: not given
Remark: another data set of the same source
`c1ccc([C@@H]2C[C@H]2NC2CCNCC2)cc1` gave a ΔTm of 8.37 °C.
